Read-outs that look alike come from different tables or passages of the source.
Tests used:
[1] = tested on: Lambsquarters; assay: Field pre-emergence selectivity test; assay type: in vivo; conditions: Chenopodium album, 1008 h, S.A., 6 weeks, read-out: Percent Inhibition
From the text: (§1) The seeds were planted in a fine seedbed of silt loam of intermediate moisture. The seeds were planted at a depth of two inches (5.08 cm). First rainfall (0.2"; 0.51 cm) occurred the day following treatment, the second rain (0.25"; […]) two days after treatment; cumulative rainfall 22 days after treatment was 1.8" (4.57 cm). Observations were made 6 weeks after treatment.

[2] = tested on: Sweet Corn; assay: Field pre-emergence selectivity test; assay type: in vivo; conditions: Zea mays, 1008 h, 6 weeks, read-out: Percent Inhibition; for inhibition at 560 g/ha: 0.56 Kg/Ha; for inhibition at 1120 g/ha: 1.12 Kg/Ha; for inhibition at 2240 g/ha: 2.24 Kg/Ha
From the text: as §1

[3] = tested on: peanuts; assay: Field pre-emergence selectivity test; assay type: in vivo; conditions: 1008 h, 6 weeks, read-out: Percent Inhibition; for inhibition at 560 g/ha: 0.56 Kg/Ha; for inhibition at 1120 g/ha: 1.12 Kg/Ha; for inhibition at 2240 g/ha: 2.24 Kg/Ha; for inhibition at 4480 g/ha: 4.48 Kg/Ha
From the text: as §1

[4] = tested on: cotton; assay: Field pre-emergence selectivity test; assay type: in vivo; conditions: Gossypium hirsutum, 1008 h, 6 weeks, read-out: Percent Inhibition; for inhibition at 560 g/ha: 0.56 Kg/Ha; for inhibition at 1120 g/ha: 1.12 Kg/Ha; for inhibition at 2240 g/ha: 2.24 Kg/Ha; for inhibition at 4480 g/ha: 4.48 Kg/Ha
From the text: as §1

[5] = tested on: rape; assay: Field pre-emergence selectivity test; assay type: in vivo; conditions: 1008 h, 6 weeks, read-out: Percent Inhibition; for inhibition at 560 g/ha: 0.56 Kg/Ha; for inhibition at 1120 g/ha: 1.12 Kg/Ha; for inhibition at 2240 g/ha: 2.24 Kg/Ha; for inhibition at 4480 g/ha: 4.48 Kg/Ha
Protocol: (§2) The compound of Examples 1 and 2 was also tested in the field to determine its pre-emergence selectivity against foxtail (spp), barnyardgrass, wild proso millet, smartweed, lambsquarters and pigweed in a plurality of crops; the data (representing three replicate runs) are shown in Table VII for both surface application (S.A.) and soil incorporation (PPI, i.e., preplant incorporation) of the herbicide. The seeds were planted in a fine seedbed of silt loam of intermediate moisture. The seeds were planted at a depth of two inches (5.08 cm). First rainfall (0.2"; 0.51 cm) occurred the day following treatment, the second rain (0.25"; […]) two days after treatment; cumulative rainfall 22 days after treatment was 1.8" (4.57 cm). Observations were made 6 weeks after treatment.

[6] = tested on: Barnyardgrass; assay: Field pre-emergence selectivity test; assay type: in vivo; conditions: Echinochloa crus-galli, 1008 h, 6 weeks, read-out: Percent Inhibition; for inhibition at 560 g/ha: 0.56 Kg/Ha; for inhibition at 1120 g/ha: 1.12 Kg/Ha; for inhibition at 2240 g/ha: 2.24 Kg/Ha; for inhibition at 4480 g/ha: 4.48 Kg/Ha
Protocol: as §2

[7] = tested on: foxtail (spp); assay: Field pre-emergence selectivity test; assay type: in vivo; conditions: Setaria, 1008 h, 6 weeks, read-out: Percent Inhibition; for inhibition at 560 g/ha: 0.56 Kg/Ha; for inhibition at 1120 g/ha: 1.12 Kg/Ha; for inhibition at 2240 g/ha: 2.24 Kg/Ha; for inhibition at 4480 g/ha: 4.48 Kg/Ha
Protocol: as §2

[8] = tested on: Bush Bean; assay: Field pre-emergence selectivity test; assay type: in vivo; conditions: 1008 h, 6 weeks, read-out: Percent Inhibition; for inhibition at 560 g/ha: 0.56 Kg/Ha; for inhibition at 1120 g/ha: 1.12 Kg/Ha; for inhibition at 2240 g/ha: 2.24 Kg/Ha; for inhibition at 4480 g/ha: 4.48 Kg/Ha
Protocol: as §2

[9] = tested on: pigweed; assay: Field pre-emergence selectivity test; assay type: in vivo; conditions: Amaranthus retroflexus, 1008 h, 6 weeks, read-out: Percent Inhibition; for inhibition at 560 g/ha: 0.56 Kg/Ha; for inhibition at 1120 g/ha: 1.12 Kg/Ha
Protocol: as §2

[10] = tested on: Smartweed; assay: Field pre-emergence selectivity test; assay type: in vivo; conditions: 1008 h, 6 weeks, read-out: Percent Inhibition; for inhibition at 560 g/ha: 0.56 Kg/Ha; for inhibition at 2240 g/ha: 2.24 Kg/Ha; for inhibition at 4480 g/ha: 4.48 Kg/Ha
Protocol: as §2

[11] = tested on: Sorghum; assay: Field pre-emergence selectivity test; assay type: in vivo; conditions: 1008 h, 6 weeks, read-out: Percent Inhibition; for inhibition at 560 g/ha: 0.56 Kg/Ha; for inhibition at 1120 g/ha: 1.12 Kg/Ha; for inhibition at 2240 g/ha: 2.24 Kg/Ha; for inhibition at 4480 g/ha: 4.48 Kg/Ha
Protocol: as §2

[12] = tested on: soybeans; assay: Field pre-emergence selectivity test; assay type: in vivo; conditions: Glycine max, 1008 h, 6 weeks, read-out: Percent Inhibition; for inhibition at 560 g/ha: 0.56 Kg/Ha; for inhibition at 1120 g/ha: 1.12 Kg/Ha; for inhibition at 2240 g/ha: 2.24 Kg/Ha; for inhibition at 4480 g/ha: 4.48 Kg/Ha
Protocol: as §2

[13] = tested on: Field Corn; assay: Field pre-emergence selectivity test; assay type: in vivo; conditions: Zea mays, 1008 h, 6 weeks, read-out: Percent Inhibition; for inhibition at 560 g/ha: 0.56 Kg/Ha; for inhibition at 1120 g/ha: 1.12 Kg/Ha; for inhibition at 2240 g/ha: 2.24 Kg/Ha; for inhibition at 4480 g/ha: 4.48 Kg/Ha
Protocol: as §2

[14] = Toxicology studies, skin irritation; conditions: in vivo
From the text: Toxicology studies on the compound of Example 1 have indicated the compound to be quite safe. […] No special handling procedures beyond normal precautions are deemed necessary.

## CCOCN(C(=O)CCl)c1c(C)cccc1C(F)(F)F [Example 1, N-(ethoxymethyl)-2'-trifluoromethyl-6'-methyl-2-chloroacetanilide]
[1]; 0.56 Kg/Ha
  inhibition at 560 g/ha: 0%
[1]; 1.12 Kg/Ha
  inhibition at 1120 g/ha: 13%
[1]; 2.24 Kg/Ha
  inhibition at 2240 g/ha: 40%
[1]; 4.48 Kg/Ha
  inhibition at 4480 g/ha: 67%
[2]; P.P.I.
  inhibition at 560 g/ha: 0%
  inhibition at 1120 g/ha: 3%
  inhibition at 2240 g/ha: 27%
[2]; P.P.I., 4.48 Kg/Ha
  inhibition at 4480 g/ha: 40%
[2]; S.A.
  inhibition at 560 g/ha: 0%
  inhibition at 1120 g/ha: 0%
  inhibition at 2240 g/ha: 7%
[3]; P.P.I.
  inhibition at 560 g/ha: 17%
  inhibition at 1120 g/ha: 13%
  inhibition at 2240 g/ha: 15%
  inhibition at 4480 g/ha: 28%
[3]; S.A.
  inhibition at 560 g/ha: 0%
  inhibition at 1120 g/ha: 0%
  inhibition at 2240 g/ha: 8%
  inhibition at 4480 g/ha: 22%
[4]; P.P.I.
  inhibition at 560 g/ha: 13%
  inhibition at 1120 g/ha: 32%
  inhibition at 2240 g/ha: 37%
  inhibition at 4480 g/ha: 82%
[4]; S.A.
  inhibition at 560 g/ha: 0%
  inhibition at 1120 g/ha: 13%
  inhibition at 2240 g/ha: 20%
  inhibition at 4480 g/ha: 25%
[5]; P.P.I.
  inhibition at 560 g/ha: 0%
  inhibition at 1120 g/ha: 0%
  inhibition at 2240 g/ha: 15%
  inhibition at 4480 g/ha: 40%
[5]; S.A.
  inhibition at 560 g/ha: 0%
  inhibition at 1120 g/ha: 0%
  inhibition at 2240 g/ha: 5%
  inhibition at 4480 g/ha: 33%
[6]; P.P.I.
  inhibition at 560 g/ha: 75%
  inhibition at 1120 g/ha: 93%
  inhibition at 2240 g/ha: 98%
  inhibition at 4480 g/ha: 100%
[6]; S.A.
  inhibition at 560 g/ha: 63%
  inhibition at 1120 g/ha: 93%
  inhibition at 2240 g/ha: 93%
  inhibition at 4480 g/ha: 98%
[7]; P.P.I.
  inhibition at 560 g/ha: 75%
  inhibition at 1120 g/ha: 90%
  inhibition at 2240 g/ha: 98%
  inhibition at 4480 g/ha: 100%
[7]; S.A.
  inhibition at 560 g/ha: 62%
  inhibition at 1120 g/ha: 92%
  inhibition at 2240 g/ha: 93%
  inhibition at 4480 g/ha: 98%
[8]; P.P.I.
  inhibition at 560 g/ha: 23%
  inhibition at 1120 g/ha: 10%
  inhibition at 2240 g/ha: 37%
  inhibition at 4480 g/ha: 43%
[8]; S.A.
  inhibition at 560 g/ha: 0%
  inhibition at 1120 g/ha: 8%
  inhibition at 2240 g/ha: 20%
  inhibition at 4480 g/ha: 32%
[9]; P.P.I.
  inhibition at 560 g/ha: 50%
  inhibition at 1120 g/ha: 85%
[9]; P.P.I., 2.24 Kg/Ha
  inhibition at 2240 g/ha: 85%
[9]; P.P.I., 4.48 Kg/Ha
  inhibition at 4480 g/ha: 95%
[9]; S.A.
  inhibition at 560 g/ha: 0%
  inhibition at 1120 g/ha: 0%
[10]; P.P.I.
  inhibition at 560 g/ha: 20%
  inhibition at 2240 g/ha: 75%
  inhibition at 4480 g/ha: 85%
[10]; S.A.
  inhibition at 560 g/ha: 0%
  inhibition at 2240 g/ha: 50%
  inhibition at 4480 g/ha: 90%
[10]; S.A., 1.12 Kg/Ha
  inhibition at 1120 g/ha: 0%
[11]; P.P.I.
  inhibition at 560 g/ha: 32%
  inhibition at 1120 g/ha: 53%
  inhibition at 2240 g/ha: 92%
  inhibition at 4480 g/ha: 98%
[11]; S.A.
  inhibition at 560 g/ha: 0%
  inhibition at 1120 g/ha: 3%
  inhibition at 2240 g/ha: 17%
  inhibition at 4480 g/ha: 77%
[12]; P.P.I.
  inhibition at 560 g/ha: 5%
  inhibition at 1120 g/ha: 7%
  inhibition at 2240 g/ha: 20%
  inhibition at 4480 g/ha: 40%
[12]; S.A.
  inhibition at 560 g/ha: 0%
  inhibition at 1120 g/ha: 5%
  inhibition at 2240 g/ha: 0%
  inhibition at 4480 g/ha: 13%
[13]; P.P.I.
  inhibition at 560 g/ha: 0%
  inhibition at 1120 g/ha: 0%
  inhibition at 2240 g/ha: 5%
  inhibition at 4480 g/ha: 32%
[13]; S.A.
  inhibition at 560 g/ha: 0%
  inhibition at 1120 g/ha: 0%
  inhibition at 2240 g/ha: 0%
  inhibition at 4480 g/ha: 15%
[14]
  skin irritation: no skin irritation

— patent US4731109A, “Herbicidal 2-haloacetanilides” (Monsanto Company, priority 1982, dated 1988)
